Peptide text beside a SMILES is read from it. * marks the point of attachment. Palmitoyl = CCCCCCCCCCCCCCCC(=O)*
Legend:
[1] = tested on: P19 embryonal carcinoma cells differentiated into neurons; experiment: Neurite outgrowth of neurons cultured in peptide amphiphile gels; format: cell-based, murine; settings: compared to gels of PA 1; for promotion of neurite outgrowth (in words): gels containing 0.2 wt % of the PA with 0.8 wt % PA 1
Experimental: P19 embryonal carcinoma cells were cultured in media composed of α-MEM (Gibco), 7.5% newborn calf serum (Lonza), 2.5% fetal bovine serum (Gibco), penicillin (100 units/ml) and streptomycin (100 ug/ml) (Invitrogen). Neuronal differentiation was induced by plating P19 cells in non-treated Petri dishes in media containing 5 uM retinoic acid (Sigma) for 4 days. Neurospheres were collected from the Petri dish and allowed to settle in a centrifuge tube for 10 minutes. Media was removed, then trypsin/EDTA solution was added and the tube was gently agitated for 5 minutes. Cells were dissociated by triturating the neurospheres, then media was added to inactivate the trypsin. Cells were centrifuged and the pellet resuspended in media to a concentration of 25,000 cells/ul. Cells were mixed (1:4) with PA solution. The PA/cell solution was pipetted into coverslip-bottom culture dishes (MatTek) and covered with gelling solution (150 mM NaCl, 3 mM KCl, 25 mM CaCl2) for 1 minute to induce gelation, then rinsed with a 150 mM NaCl, 3 mM KCl solution, then media was added to the dish. Cells were cultured for 2 days.
In order to assay neurite outgrowth, gels were rinsed with PBS, then fixed in 4% paraformaldehyde for 30 minutes at room temperature. Gels were rinsed 3× with PBS followed by addition of 10% normal goat serum blocking solution (Invitrogen) with 0.1% Triton X-100 added. Gels were incubated overnight with primary antibody (rabbit anti-β-III-tubulin IgG, 1/2000, Covance) in blocking solution. Gels were rinsed 3× with PBS, then blocked for 30 minutes with blocking solution. Next, gels were incubated with secondary antibody (Alexa Fluor 488 goat anti-rabbit IgG, 1/100, Invitrogen) in blocking solution for 1 hour. After one PBS rinse, nuclei were stained with a 5 ug/ml solution of Hoecsht 34580 (Invitrogen) in PBS for 15 minutes, then rinsed 4 times. Gels were imaged on a Zeiss LSM 510 META laser scanning confocal microscope, individually acquiring z-stacks of randomly chosen cells with neurites. Two gels were imaged per condition for each experiment. Experiments were done in triplicate. For each condition, at least 50 neurons with neurites were imaged. Using the Simple Neurite Tracer plug-in for ImageJ software, neurites were traced and measured. A one-way ANOVA, followed by paired t-tests, were performed to determine significance between conditions. Researchers were blinded to the conditions during imaging and tracing.
Pluripotent murine P19 embryonal carcinoma cells were differentiated into neurons. These neurons were then homogeneously distributed into isotonic salt solutions composed of 0.8 wt % PA 1 mixed with 0.2 wt % 2-5 and gelled with 25 mM CaCl2 (FIG. 3a,b). Mixtures of 1 with 2-5 were used in biological experiments in order to form robust gel matrices capable of supporting cells in culture. After two days of culture, the cells were fixed and the neurites and nuclei were fluorescently labelled green and blue using β-III-tubulin immunostaining and Hoechst staining, respectively, then imaged by confocal microscopy (FIG. 14). Neurites were traced and measured, and average neurite lengths were calculated (FIG. 15).

[2] = Small-angle X-ray scattering (SAXS) of PA nanostructures; format: physicochemical; settings: (Core) Shell Cylinder SAXS model; for Total SAXS Cross-section dimensions: diameter
Excerpt: Small-angle X-ray scattering (SAXS) measurements were obtained using a Rigaku S-MAX 3000 High Brilliance SAXS System. Cu Ka radiation was generated by Osmic MicroMaxs, an integrated microfocus sealed tube generator (powered at 45 kV and 0.9 mA) with Osmict Confocal Max-Fluxs optics, 3 pinholes collimation. A 20×20 cm^2 2D position-sensitive wire detector (1024×1024 pixels) was positioned 150 cm behind the examined samples, resulting in a q-range of 0.07-2.8 nm^−1. The wave vector defined as, q=(4π/λ)sin(2θ/2), where 2y is the scattering angle and λ is wavelength of Cu Kα radiation (1.542 Å). A total of 10^6 or more counts were collected in order to obtain a high signal to noise ratio. Samples were measured for 3600 s, and then background subtracted from data collected using a capillary containing the isotonic salt solution. The 2D SAXS patterns were azimuthally averaged and the background subtracted using standard methods. Data analysis was based on fitting the scattering curve to an appropriate model by a least-squares method using software provided by NIST (NIST SANS analysis version 7.0 on IGOR) ^21 The table below lists the models used to fit the SAXS curves. The Total SAXS cross-sectional dimensions correspond to length and width for molecule 2, and diameter for 3-5.

[3] = Transmission electron microscopy (cryoTEM / conventional TEM) of PA nanostructures; format: physicochemical; settings: for fiber diameter in trimer ribbons: cryoTEM / TEM, fibers aggregated side-by-side; for OBSERVED FIBER DIAMETER: from TEM; for ASSEMBLED MORPHOLOGY: observed morphologies from TEM; for average diameter of cylindrical fibers: cryoTEM, 150 mM NaCl, 3 mM KCl, pH 7.4
Experimental: The nanostructure of each PA molecule under physiologically relevant conditions was investigated using electron microscopy. Samples for vitreous ice cryo-transmission electron microscopy (cryoTEM) were prepared from a 0.1-0.5 wt % PA solution dissolved in 150 mM NaCl, 3 mM KCl, or in a 150 mM NaCl, 3 mM KCl, and 5 mM CaCl2 solution, both at a pH of 7.2-7.4. The solutions were then heated to 80° C. in a water bath for 1 hr, and then slowly cooled to room temperature over the course of 8 hr. 10 μL of each solution was pipetted onto a plasma cleaned holey carbon TEM grid (Electron Microscopy Sciences), blotted and plunged into liquid ethane using a FEI Vitrobot Mark IV. Samples were kept at −180° C. and imaged using a JEOL 1230 TEM operating at 100 kV.
Samples for conventional TEM microscopy were prepared from 0.1 wt % PA solution dissolved in ultrapure water and adjusted to a pH of 7.2-7.4 by adding NaOH. The solutions were then heated to 80° C. in a water bath for 1 hr, and then slowly cooled to room temperature over the course of 8 hr, unless noted otherwise. 2 μL of a 0.1 wt % PA solution was pipetted onto a Carbon Formvar grid (Electron Microscopy Sciences) and allowed to dry. The samples were then negatively stained by pipetting 2 uL of a 2 wt % Uranyl acetate solution and allowed to dry. Each sample was imaged using a JEOL 1230 TEM operating at 100 kV. The average diameter of nanofibers was obtained via measuring 40-100 different fibers from solutions and grids prepared throughout multiple days.
The assembly of each PA molecule under physiologically relevant conditions was examined using cryogenic electron microscopy (cryoTEM), as described in Example 4. PAs were dissolved in isotonic salt solutions resembling extracellular fluid (150 mM NaCl, 3 mM KCl, pH 7.4). […] In order to compare molecular simulation diameters with those observed from TEM, molecular simulation values for the other four PA molecules were scaled by the same amount, 87%.

[4] = Solubility in physiologically relevant monovalent salt solution; format: physicochemical; settings: monovalent salt solution composed of 150 mM NaCl and 3 mM KCl
Circular dichroism (CD) = format: physicochemical; settings: 1 wt % in 150 mM NaCl, 3 mM KCl
Experimental: CD was done using a model J-715 Jasco Circular Dichroism Spectrometer. 1 wt % PA solutions were prepared in either a 150 mM NaCl, 3 mM KCl solution or a 150 mM NaCl, 3 mM KCl, and 5 mM CaCl2 solution, both at a pH of 7.2-7.4, as determined via pH paper. The solutions were then heated to 80° C. in a water bath for 1 hr, and then slowly cooled to room temperature over the course of 8 hr. The samples were measured through 0.01 mm quartz plates. Each trace represents the average of three scans. The mean residue ellipticity was corrected for purity of the lyophilized powder from peptide content analysis.

## CCCCCCCCCCCCCCCC(=O)N[C@H](C(=O)N[C@H](C(=O)N[C@@H](C)C(=O)N[C@@H](C)C(=O)N[C@@H](CCC(=O)O)C(=O)N[C@@H](CCC(=O)O)C(=O)N[C@@H](CCC(=O)O)C(=O)NCC(=O)N[C@H](C(=O)N[C@@H](CCCCN)C(=O)N[C@H](C(=O)N[C@@H](C)C(=O)N[C@H](C(=O)O)C(C)C)C(C)C)[C@@H](C)CC)C(C)C)C(C)C [PA 3, CH3(CH2)14C(O)-VVAAEEEGIKVAV-OH] (Palmitoyl-VVAAEEEGIKVAV-OH)
[1]
  promotion of neurite outgrowth (in words): promoted neurite outgrowth
[1]; listed as SEQ ID NO. 5
  promotion of neurite outgrowth (in words): promote neurite outgrowth
[1]; gels of 0.8 wt % PA 1 mixed with 0.2 wt % of the PA, gelled with 25 mM CaCl2, 2 days culture
  increase in neurite outgrowth: 42±13%
[2]
  Core Diameter: 1.2 nm
  Shell Thickness: 3.8 ± 0.6 nm
  Total SAXS Cross-section dimensions: 7.6 ± 1.2 nm
[3]
  fiber diameter in trimer ribbons: 7.1±1 nm
[3]; cryoTEM and conventional TEM
  diameter of cylindrical assemblies: 12.8±1.3 nm
[3]; Cylindrical morphology
  OBSERVED FIBER DIAMETER: 128 ± 14 Å
  ASSEMBLED MORPHOLOGY: Cylindrical
[3]; Trimer ribbon morphology
  OBSERVED FIBER DIAMETER: 71 ± 5 Å
  ASSEMBLED MORPHOLOGY: Trimer ribbon
[4]
  solubility: soluble
Circular dichroism (CD)
  peptide secondary structure from CD spectrum: beta-sheet like CD signatures

## CH3(CH2)14C(O)-VVAAEEEGGIKVAV-OH (Palmitoyl-VVAAEEEGGIKVAV-OH; SMILES CCCCCCCCCCCCCCCC(=O)N[C@H](C(=O)N[C@H](C(=O)N[C@@H](C)C(=O)N[C@@H](C)C(=O)N[C@@H](CCC(=O)O)C(=O)N[C@@H](CCC(=O)O)C(=O)N[C@@H](CCC(=O)O)C(=O)NCC(=O)NCC(=O)N[C@H](C(=O)N[C@@H](CCCCN)C(=O)N[C@H](C(=O)N[C@@H](C)C(=O)N[C@H](C(=O)O)C(C)C)C(C)C)[C@@H](C)CC)C(C)C)C(C)C) [PA 4]
[1]
  promotion of neurite outgrowth (in words): did not show any biological activity with respect to neurite outgrowth
[1]; listed as 4
  promotion of neurite outgrowth (in words): did not
[2]
  Core Diameter: .93 nm
  Shell Thickness: 2.63 ± 1.1 nm
  Total SAXS Cross-section dimensions: 7.1 ± 2.2 nm
[3]; cryoTEM and conventional TEM
  fiber diameter in bundled dimers: 8.1±1.0 nm
  fiber diameter in triple helices: 7.7±0.9 nm
[3]; Dimer Bundle morphology
  OBSERVED FIBER DIAMETER: 77 ± 9 Å
  ASSEMBLED MORPHOLOGY: Dimer Bundle
[3]; Triple helix morphology
  OBSERVED FIBER DIAMETER: 81 ± 10 Å
  ASSEMBLED MORPHOLOGY: Triple helix

## CH3(CH2)14C(O)-VVAAEE-NH2 (Palmitoyl-VVAAEE-NH2) [PA 1]
[3]
  average diameter of cylindrical fibers: 6.7±0.9 nm
  OBSERVED FIBER DIAMETER: 66 ± 9 Å
  ASSEMBLED MORPHOLOGY: Cylindrical fiber
[3]; listed as PA compound 1
  average diameter of cylindrical fibers: 6.7 nm

## CH3(CH2)14C(O)-VVAAEEGIKVAV-OH (Palmitoyl-VVAAEEGIKVAV-OH; SMILES CCCCCCCCCCCCCCCC(=O)N[C@H](C(=O)N[C@H](C(=O)N[C@@H](C)C(=O)N[C@@H](C)C(=O)N[C@@H](CCC(=O)O)C(=O)N[C@@H](CCC(=O)O)C(=O)NCC(=O)N[C@H](C(=O)N[C@@H](CCCCN)C(=O)N[C@H](C(=O)N[C@@H](C)C(=O)N[C@H](C(=O)O)C(C)C)C(C)C)[C@@H](C)CC)C(C)C)C(C)C) [PA 2]
[1]
  promotion of neurite outgrowth (in words): no enhancement of neurite outgrowth
[1]; listed as 2
  promotion of neurite outgrowth (in words): did not
[3]
  fiber diameter in trimer ribbons: 6.0±0.5 nm
  OBSERVED FIBER DIAMETER: 60 ± 5 Å
  ASSEMBLED MORPHOLOGY: Trimer ribbon
Circular dichroism (CD)
  peptide secondary structure from CD spectrum: beta-sheet like CD signatures
